For test [1], the species on record is Homo sapiens. As to the kind of experiment: Selectivity for delta opioid receptor over mu opioid receptor.
Test [2] has as its system Mus musculus. As to the kind of experiment: Antinociceptive effect in mouse at 30 mg/kg by tail flick assay. Details: dose 30 mg/kg. The test is classed as functional, organism-based.
Test [3] has as its system Mus musculus. As to the kind of experiment: Antinociceptive effect in mouse at 30 mg/kg by antiwrithing assay. Format: functional, organism-based. Details: dose 30 mg/kg.
Test [4] concerns the target Kappa-type opioid receptor (Homo sapiens, UniProt P41145). The test can be described thus: Displacement of [3H]U-69593 from cloned kappa opioid receptor.
Test [5] deals with T1, Mu-type opioid receptor (Homo sapiens, UniProt P35372). As to the kind of experiment: Activity at mu opioid receptor assessed as stimulation of [35S]GTP-gamma-S binding. Format: functional.
T1 sequence (P35372 whole entry): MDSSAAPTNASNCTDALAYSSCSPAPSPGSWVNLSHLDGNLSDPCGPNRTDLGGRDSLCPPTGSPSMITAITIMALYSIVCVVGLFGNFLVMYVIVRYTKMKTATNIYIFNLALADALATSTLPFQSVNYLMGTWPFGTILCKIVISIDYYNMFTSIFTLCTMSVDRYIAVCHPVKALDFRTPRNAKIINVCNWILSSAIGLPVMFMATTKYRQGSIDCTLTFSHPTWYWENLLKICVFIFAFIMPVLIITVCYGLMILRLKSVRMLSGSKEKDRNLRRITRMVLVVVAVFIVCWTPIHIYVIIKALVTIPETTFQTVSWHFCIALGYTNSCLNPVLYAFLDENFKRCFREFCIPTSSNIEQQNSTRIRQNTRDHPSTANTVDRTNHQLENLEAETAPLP
The target of test [6] is T2, Delta-type opioid receptor (Homo sapiens, UniProt P41143). As to the kind of experiment: Activity at delta opioid receptor assessed as stimulation of [35S]GTP-gamma-S binding.
T2 sequence (P41143 whole entry): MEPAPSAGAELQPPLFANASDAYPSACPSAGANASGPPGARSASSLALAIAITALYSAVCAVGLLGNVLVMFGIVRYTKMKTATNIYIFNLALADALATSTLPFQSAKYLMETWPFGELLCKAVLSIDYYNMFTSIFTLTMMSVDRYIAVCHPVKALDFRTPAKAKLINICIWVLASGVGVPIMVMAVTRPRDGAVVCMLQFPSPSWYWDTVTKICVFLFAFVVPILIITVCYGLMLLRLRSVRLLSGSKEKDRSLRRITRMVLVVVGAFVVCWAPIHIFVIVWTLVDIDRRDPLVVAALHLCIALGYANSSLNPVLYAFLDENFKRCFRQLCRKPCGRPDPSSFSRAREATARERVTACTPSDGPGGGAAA
For test [7], the system named is Mus musculus. The test can be described thus: Antinociceptive effect in mouse at 30 mg/kg by […]. The test is classed as functional, organism-based. Details: dose 30 mg/kg.
Test [8] deals with T2, Delta-type opioid receptor. As to the kind of experiment: Displacement of [3H]p-Cl-DPDPE from delta opioid receptor.
Test [9] concerns Mus musculus. The test can be described thus: Antinociceptive effect in mouse at 30 mg/kg by hot plate assay. The test is classed as functional, organism-based. Details: dose 30 mg/kg.
Test [10] has as its target T1, Mu-type opioid receptor. As to the kind of experiment: Displacement of [3H]DAMGO from mu opioid receptor.

Active and inactive are the calls of the source. No cut-off for these calls is given here.

Sequence of Kappa-type opioid receptor (P41145 whole entry): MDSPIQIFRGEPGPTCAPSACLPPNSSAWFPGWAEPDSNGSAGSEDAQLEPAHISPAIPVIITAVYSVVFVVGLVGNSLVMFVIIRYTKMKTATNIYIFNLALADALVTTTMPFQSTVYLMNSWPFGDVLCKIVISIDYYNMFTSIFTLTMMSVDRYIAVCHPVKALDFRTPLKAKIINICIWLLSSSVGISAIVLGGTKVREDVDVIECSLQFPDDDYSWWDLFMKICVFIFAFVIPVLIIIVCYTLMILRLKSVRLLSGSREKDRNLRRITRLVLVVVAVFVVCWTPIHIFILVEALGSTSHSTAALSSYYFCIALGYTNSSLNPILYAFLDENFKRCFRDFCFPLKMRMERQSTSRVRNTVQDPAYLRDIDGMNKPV

For `CN1CC[C@]23c4c5ccc(O)c4O[C@H]2c2[nH]c4ccc(F)cc4c2C[C@@]3(O)[C@H]1C5`, in test [1], the Ratio Ki turned out to be 9. The outcome in [2], in test [3], in test [7] and in test [9] was inactive. The Ki was determined as 310 nM in test [4], 2.3 nM in test [8] and 21 nM in test [10]. Further, the Activity in test [5] was 34%. Also, the EC50 in test [5] was 1080 nM; in test [6], 16 nM.

Turning to `CN1CC[C@]23c4c5ccc(O)c4O[C@H]2c2[nH]c4ccc(I)cc4c2C[C@@]3(O)[C@H]1C5`, the Ratio Ki in [1] was found to be 17. For the same molecule, the result in test [2], in test [3], in test [7] and in test [9] was inactive. The inhibition constant Ki in test [4] amounted to 160 nM; in test [8], 3.8 nM; in test [10] it was 66 nM.

As to `CN1CC[C@]23c4c5ccc(O)c4O[C@H]2c2[nH]c4ccc(Cl)cc4c2C[C@@]3(O)[C@H]1C5`, the Ratio Ki in [1] stood at 9. For the same molecule, the outcome in test [2], in test [3], in [7] and in [9] was inactive. In addition, the inhibitory constant (Ki) in [4] is 360 nM; in test [8], 5.1 nM; in test [10], 47 nM.

For `CN1CC[C@]23c4c5ccc(O)c4O[C@H]2c2[nH]c4ccc(Br)cc4c2C[C@@]3(O)[C@H]1C5`, in [1], the Ratio Ki was determined as 8. For the same molecule, the result in [2], in test [3], in test [7] and in [9] was inactive. Further, the Ki is 250 nM in test [4], 8.6 nM in test [8] and 71 nM in test [10].

As for `CN1CC[C@]23c4c5ccc(O)c4O[C@H]2c2[nH]c4ccccc4c2C[C@@]3(O)[C@H]1C5` [OXYMORPHINDOLE], the Ratio Ki in [1] came to 115. For the same molecule, the result in test [2], in test [3], in [7] and in [9] was inactive. In addition, the Ki in [8] was 0.9 nM; in test [10], 105 nM.
